Test results published in ChEMBL document CHEMBL3137667, “[Drug-induced liver injury; fourteenth updated edition of the bibliographic database of liver injuries and related drugs]” (Gastroenterol Clin Biol, 2004).

What was measured:
[1] = human
[2] = human; remark: listed apart in the source
[3] = human; remark: listed apart in the source
[4] = human; remark: listed apart in the source
[5] = human, serum
[6] = Times to onset, minimal and maximal, observed in the indexed observations. [column 'DELAI' in source]; details: human
[7] = human; remark: listed apart in the source
[8] = human, serum, 4383 h
[9] = human; remark: listed apart in the source
[10] = Proposed mechanism(s) of liver damage. [column 'MEC' in source]; details: human
[11] = Presence of at least one case with successful reintroduction. [column 'REINT' in source]; details: human
[12] = human; remark: listed apart in the source
[13] = human; remark: listed apart in the source
[14] = Highest frequency of moderate liver toxicity observed during clinical trials, expressed as a percentage. [column '% BIOL' in source]; details: human
[15] = Highest frequency of acute liver toxicity observed during clinical trials, expressed as a percentage. [column '% AIGUE' in source]; details: human
[16] = human, serum; remark: listed apart in the source
[17] = human; remark: listed apart in the source
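For Hepatotoxicity (association with vascular disease) in this document: count of indexed literature references reporting vascular liver injury in humans, e.g. peliosis hepatitis, hepatic veno-occlusive disease or Budd-Chiari syndrome.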
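For Hepatotoxicity (benign tumour) in this document: value is a count of indexed literature references citing a benign tumour confirmed by histopathology.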
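For Hepatotoxicity (choleostasis) in this document: human cholestatic liver injury, shown by histopathology or by peak ALT or AST elevation over alkaline phosphatase ratio below 2, value counts indexed literature reports.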
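For Hepatotoxicity (chronic liver disease) in this document: chronic liver injury confirmed by histopathology or persistently raised serum aminotransferase activity beyond 6 months, value given as the count of indexed literature references.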
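For Hepatotoxicity (cirrhosis) in this document: value is a count of indexed literature references reporting cirrhosis confirmed by histopathology.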
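For Hepatotoxicity (cytolytic) in this document: human cytolytic liver injury, shown by histopathology or by a ratio above 5 of peak ALT or AST elevation to alkaline phosphatase elevation, value counts indexed references.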
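For Hepatotoxicity (granulomatous hepatitis) in this document: value is a count of indexed literature references reporting granulomatous liver disease confirmed by histopathology.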
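For Hepatotoxicity (malignant tumour) in this document: malignant tumour confirmed by histopathology, value gives the count of indexed literature references reporting it.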
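For Hepatotoxicity (severe hepatitis) in this document: human clinical data: severe hepatitis, meaning potentially life-threatening liver failure or clinically observed cases, the value counts how many indexed literature references report it.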
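For Hepatotoxicity (steatosis) in this document: steatosis confirmed by histopathology, value is the count of indexed references.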

SMILES | Hepatotoxicity (choleostasis) [1] | Hepatotoxicity (cirrhosis) [2] | Hepatotoxicity (association with vascular disease) [3] | Hepatotoxicity (granulomatous hepatitis) [4] | Hepatotoxicity (acute) [5] | Hepatotoxicity (time to onset) [6] | Hepatotoxicity (benign tumour) [7] | Hepatotoxicity (chronic liver disease) [8] | Hepatotoxicity (steatosis) [9] | Hepatotoxicity (mechanism) [10] | Hepatotoxicity (successful reintroduction) [11] | Hepatotoxicity (cytolytic) [12] | Hepatotoxicity (malignant tumour) [13] | Hepatotoxicity (moderate) [14] [%] | Hepatotoxicity (acute) [15] [%] | Hepatotoxicity (moderate) [16] | Hepatotoxicity (severe hepatitis) [17] | further results
COc1ccc2[nH]c([S+]([O-])Cc3ncc(C)c(OC)c3C)nc2c1 (stereo not given) [OMEPRAZOLE] | 3 | 0 | 0 | 0 | 10 | 2 days - 1 year | 0 | 0 | 0 | Dose-dependant | yes | 8 | 0 | 47 | 3.1 | 24 | 1 | –
Cc1ncc(CO)c(CO)c1O [PYRIDOXINE] | – | 0 | 0 | – | 1 | 2 months | 0 | 0 | 0 | – | yes | – | 0 | – | – | 2 | – | Hepatotoxicity (choleostasis) ([1]; Liver): 0; Hepatotoxicity (granulomatous hepatitis) ([4]; Liver): 0; Hepatotoxicity (mechanism) ([10]; Liver): Dose-dependant; Hepatotoxicity (cytolytic) ([12]; Liver): 1; Hepatotoxicity (moderate) ([14]; Liver): 6%; Hepatotoxicity (acute) ([15]; Liver): 0%; Hepatotoxicity (severe hepatitis) ([17]; Liver): 0
CCC1NC(=O)c2cc(S(N)(=O)=O)c(Cl)cc2N1 (stereo not given) [QUINETHAZONE] | 1 | 0 | 0 | 0 | 1 | 2 months | 0 | 0 | 0 | Allergic | yes | 0 | 0 | 0 | 0 | 0 | 0 | –
CCCSc1ccc2nc(NC(=O)OC)[nH]c2c1 [ALBENDAZOLE] | 2 | 0 | 0 | 0 | 8 | 1 week - 6 months | 0 | 0 | 0 | Reactive metabolite | yes | 3 | 0 | – | – | 25 | – | Hepatotoxicity (moderate) ([14]; Liver): 100%; Hepatotoxicity (acute) ([15]; Liver): 5%; Hepatotoxicity (severe hepatitis) ([17]; Liver): 0
CC(C)NNC(=O)COc1ccc(Cl)cc1 [IPROCLOZIDE] | 1 | 0 | 0 | 0 | 3 | 1 week - 1 month | 0 | 0 | 0 | Toxic Metabolite | yes | 3 | 0 | 0 | 0 | 0 | 2 | –
Nc1ccc(C(=O)O)c(O)c1 [AMINOSALICYLIC ACID] | 9 | 0 | 0 | 0 | 17 | 2 weeks - 2 months | 0 | 0 | 0 | Allergic | yes | 11 | 0 | 35.3 | 6.4 | 6 | 6 | –
CN1C(=O)CCS(=O)(=O)C1c1ccc(Cl)cc1 (stereo not given) [CHLORMEZANONE] | 7 | 0 | 0 | 0 | 8 | 1 day - 4 weeks | 0 | 0 | 0 | Allergic, Dose-dependant | yes | 1 | 0 | 0 | 0 | 0 | 2 | –
CN1C[C@H](CC#N)C[C@@H]2c3cccc4[nH]c(Cl)c(c34)C[C@H]21 [LERGOTRILE] | 0 | 0 | 0 | 0 | 5 | 4 days - 5 months | 0 | 0 | 0 | Dose-dependant | yes | 4 | 0 | 63.2 | 15.8 | 6 | 0 | –
Cc1onc(-c2ccccc2Cl)c1C(=O)N[C@@H]1C(=O)N2[C@@H]1SC(C)(C)[C@@H]2C(=O)O [CLOXACILLIN] | 8 | 0 | 0 | 0 | 9 | 2 days - 1 month | 0 | 0 | 0 | Allergic | yes | 0 | 0 | 25 | 0 | 5 | 0 | –
O=C1c2ccccc2C(=O)C1c1ccccc1 [PHENINDIONE] | 11 | 0 | 0 | 1 | 13 | 1 week - 2 months | 0 | 0 | 0 | Allergic | yes | 3 | 0 | 0 | 0.2 | 1 | 1 | –
